System: human gastric cancer cell line NCI-N87
Experiment: ATCC's MTT Cell Proliferation Assay
Format: cell-based
Conditions: 72 hours post-treatment, concentration that inhibits cell growth by 50%
Description: To test the activities of sodium trans-[tetrachlorobis(1H-indazole)ruthenate(III)], ATCC's MTT Cell Proliferation Assay® was performed using human gastric cancer cell line NCI-N87 (differentiated carcinoma). Stock cultures were allowed to grow to 70-80% confluence for this study. The anti-proliferative activity of sodium trans-[tetrachlorobis(1H-indazole)ruthenate(III)], against the indicated cell line was evaluated in vitro using the ATCC's MTT Cell Proliferation Assay (Catalog No. 30-1010K). NCI-N87 was grown using RPMI1640 (Cell Gro 10-040-CV), with 1% of 1M HEPES, 1% sodium pyruvate, 1% of 45% glucose solution, 10% of heat-inactivated FBS and 1% of pen/strep/glutamine. […] The plates were left overnight at room temperature in the dark and was read on a plate reader using SoftMax® Pro (version 5.2, Molecular Devices).
The absorbance data was analyzed as follows: Absorbance values were converted to Percent of Control and plotted against test agent concentrations for IC50 calculations using SoftMax® Pro (version 5.2, Molecular Devices). […] Percent of Control values were calculated by dividing the absorbance values for each test well by the No Drug Control average (column 11 values; cells+vehicle control) and multiplying by 100. […]

## [Cl][Ru-]([Cl])([Cl])[Cl].[Na+].c1ccc2[nH]ncc2c1.c1ccc2[nH]ncc2c1 [sodium trans-[tetrachlorobis(1H-indazole)ruthenate(III)]]
  IC50: 3.73 µM

Source: US20130281528A1, “METHOD OF TREATING GASTRIC CANCER” (Niiki Pharma Acquisition Corp.2, priority 2010, published 2013)
